# Measurements: patent publication US10472324B2, “2-cyano-3-cyclopropyl-3-hydroxy-N-aryl-thioacrylamide derivatives” (Algiax Pharmaceuticals GmbH, priority 2014, dated 2019)
# Legend:
# [1] = molecular target: GABA gated Cl-channel (GABA.A receptor complex); experiment: GABAA receptor binding assay ([35S]TBPS radioligand); settings: 3 nM [35S]TBPS, rat cerebral cortex membrane homogenates, 120 min at 22° C.
# Experimental: GABAA Receptor Binding Assay:
# The affinity of the test compounds for the GABA gated Cl-channel (GABA.A receptor complex) in the rat cerebral cortex was determined in a radioligand binding assay (Lewin et al,. 1989). Membrane homogenates of cerebral cortex are incubated for 120 min at 22° C. with 3 nM [35S]TBPS (-t-butylbicyclophosphoorothionate) in the presence and absence of the test compound.
# Following incubation, the samples are filtered rapidly under vacuum through glass fiber filters and rinsed several times with ice-cold buffer using a 96-sample cell harvester. The filters are dried then counted for radioactivity in a scintilliation counter using a scintillation cocktail (Microscint 0, Packard). Each compound was tested at several concentrations to calculate the IC50 values of the affinity to the GABA.A receptor complex in cerebral cortex of rats.
# [2] = system: neuropathic pain induced by spinal nerve ligation (SNL) injury; experiment: SNL model or Chung model for peripheral neuropathic pain, mechanical allodynia (von Frey); format: in vivo, rat; settings: for reversal of neuropathic pain induced by spinal nerve ligation: 10 mg/kg oral gavage for 5 days, rat; for 50% paw withdrawal threshold: cut-off 60 g
# Experimental: SNL model or Chung model as in vivo model for peripheral neuropathic pain
# Surgery was performed according to the method of Chung et al., 2004 (see List of References). In brief, animals are anesthetized and the hair on their backs is trimmed. Under sterile conditions, a longitudinal incision is made at the lower lumbar and sacral levels, exposing the paraspinal muscles on the left. Connective tissues and muscles are removed by a small scraper, after which bony structures become visible. The L6 vertebra left transverse process of animal was first removed to expose the L4 and L5 spinal nerves. The L5 spinal nerve was then carefully isolated and tightly ligated with 6-0 silk thread. Surgery was always performed on the left leg (Ipsilateral paw), the right leg (contralateral paw) remained intact and served as a control. On completion of the operation, hemostasis is confirmed and the muscles are sutured in layers using silk thread and the skin is closed with metal clips, anesthesia is then discontinued. Axonal degeneration occurs, with all types of axons being approximately equally affected. Pronounced mechanical allodynia follows, accompanied by spontaneous pain behaviors, which lasts for several weeks without recovery. Mechanical allodynia is typically assessed beginning 1-2 weeks post-surgery.
# (§1) Mechanical allodynia thresholds were determined according to the methods described by Chaplan and colleagues (Chaplan et al., 1994). At the designated post-operative time points the injured rats were placed in an elevated clear-plastic, wire mesh-bottomed cage. After a 10- to 15-min acclimation period, eight von Frey filaments (Stoelting, Wood Dale, Ill.) with bending forces ranging from 2 to 60 g were used to determine the 50% mechanical threshold for paw withdrawal using the up-and-down method.
# After spinal nerve ligation (SNL) injury, individual rats were randomly assigned into a treatment group. The following groups were used:
# Group 2: SNL+ Example 1 (10 mg/kg) in vehicle by oral gavage for 5 days from DPO7 (pre-treat) till DPO12.
# Group 3: SNL+ Example 2 (10 mg/kg) in vehicle by oral gavage for 5 days from DPO7 (pre-treat) till DPO12.
# Group 2: SNL+ Example 3 (10 mg/kg) in vehicle by oral gavage for 5 days from DPO14 till DPO19.
# Group 3: SNL+ Example 4 (10 mg/kg) in vehicle by oral gavage for 5 days from DPO14 till DPO19.
# Group 4: SNL+ Example 6 (10 mg/kg) in vehicle by oral gavage for 5 days from DPO14 till DPO19.
# [3] = molecular target: human GABAA α2β3γ2 (Homo sapiens (Human), UniProt P18507+P28472+P47869); experiment: Patch clamp electrophysiology, positive modulation, HEK293 cells expressing GABAA α2β3γ2; format: cell-based; settings: GABA EC20 current = 100%
# Description: (§2) Electrophysiological assays on different subunit combinations of the human GABAA receptor complex.
# (§3) The functional positive modulation activity of the test compounds were investigated by using patch clamp techniques on HEK293 cells stably expressing different subunit combinations of the human GABAA receptor complex. In brief, the peak inward currents in response to the GABA (natural ligand of the GABAA receptors) additions in the presence of increasing concentrations of test compound were measured. To calculate the positive modulation activity the mean effect of GABA (EC20 concentration) was set to 100%.
# (§4) A value of 100 percent equates to the compound having an effect equivalent to the addition of the EC20 concentration of GABA.
# [4] = molecular target: human GABAA α3β3γ2 (Homo sapiens (Human), UniProt P18507+P28472+P34903); experiment: Patch clamp electrophysiology, positive modulation, HEK293 cells expressing GABAA α3β3γ2; format: cell-based; settings: GABA EC20 current = 100%
# Description: as §2, §3, §4
# [5] = molecular target: human GABAA α1β3γ2 (Homo sapiens (Human), UniProt P14867+P18507+P28472); experiment: Patch clamp electrophysiology, positive modulation, HEK293 cells expressing GABAA α1β3γ2; format: cell-based; settings: GABA EC20 current = 100%
# Description: as §2, §3, §4
# [6] = system: acute pain induced by capsaicin injection in the hindpaw; experiment: Capsaicin induced pain model for acute pain, mechanical allodynia (von Frey); format: in vivo, rat; settings: for reversal of acute pain induced by capsaicin injection: 1 or 10 mg/kg oral gavage, rat hindpaw
# Experimental: as §1
# Capsaicin induced pain as in vivo model for acute pain
# Rats were gently restrained and capsaicin (10 μg in 10 μI of 10% Tween80) in saline was injected into the plantar surface of the hindpaw using a 0.3 ml insulin syringe with a 29-gauge needle (Terumo Europe, Belgium).
# After injection of Capsaicin, individual rats were randomly assigned into a treatment group. The following groups were used:
# Group 2: Capsaicin injection+ Example 1 (1 mg/kg) in vehicle by oral gavage about 40 minutes after injection.
# Group 3: Capsaicin injection+ Example 3 (1 mg/kg) in vehicle by oral gavage about 40 minutes after injection.
# Group 2: Capsaicin injection+ Example 2 (10 mg/kg) in vehicle by oral gavage about 40 minutes after injection.
# Group 3: Capsaicin injection+ Example 6 (10 mg/kg) in vehicle by oral gavage about 40 minutes after injection.
# [7] = Experiment 2, 10 mg/kg oral gavage 5 days DPO14-DPO19, after DPO21 till end of experiment at DPO35
# [8] = Experiment 2, 10 mg/kg oral gavage 5 days DPO14-DPO19, at DPO21
# [9] = Experiment 1, 10 mg/kg oral gavage 5 days DPO7-DPO12, at DPO35 (end of experiment)
# [10] = Experiment 2, 10 mg/kg oral gavage about 40 minutes after capsaicin, 150 minutes after capsaicin injection
# [11] = Experiment 2, 10 mg/kg oral gavage about 40 minutes after capsaicin, 210 minutes after capsaicin injection
# [12] = Experiment 1, 1 mg/kg oral gavage about 40 minutes after capsaicin, 150 minutes after capsaicin injection
# [13] = Experiment 1, 1 mg/kg oral gavage about 40 minutes after capsaicin, 210 minutes after capsaicin injection
# Sequence of human GABAA α1β3γ2 (P14867 28-456): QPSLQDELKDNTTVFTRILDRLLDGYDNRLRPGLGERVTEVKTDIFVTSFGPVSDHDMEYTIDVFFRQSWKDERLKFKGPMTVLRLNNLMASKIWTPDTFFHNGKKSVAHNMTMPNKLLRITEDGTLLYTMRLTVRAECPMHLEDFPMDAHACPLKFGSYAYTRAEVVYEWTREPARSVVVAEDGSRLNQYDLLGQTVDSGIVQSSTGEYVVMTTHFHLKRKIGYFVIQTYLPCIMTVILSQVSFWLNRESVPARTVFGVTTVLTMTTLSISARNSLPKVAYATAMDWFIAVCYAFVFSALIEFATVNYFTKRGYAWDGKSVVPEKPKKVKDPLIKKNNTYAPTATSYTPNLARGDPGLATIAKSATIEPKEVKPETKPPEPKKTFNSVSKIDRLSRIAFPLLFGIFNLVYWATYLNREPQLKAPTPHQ
# Sequence of human GABAA α1β3γ2 (P28472 26-473): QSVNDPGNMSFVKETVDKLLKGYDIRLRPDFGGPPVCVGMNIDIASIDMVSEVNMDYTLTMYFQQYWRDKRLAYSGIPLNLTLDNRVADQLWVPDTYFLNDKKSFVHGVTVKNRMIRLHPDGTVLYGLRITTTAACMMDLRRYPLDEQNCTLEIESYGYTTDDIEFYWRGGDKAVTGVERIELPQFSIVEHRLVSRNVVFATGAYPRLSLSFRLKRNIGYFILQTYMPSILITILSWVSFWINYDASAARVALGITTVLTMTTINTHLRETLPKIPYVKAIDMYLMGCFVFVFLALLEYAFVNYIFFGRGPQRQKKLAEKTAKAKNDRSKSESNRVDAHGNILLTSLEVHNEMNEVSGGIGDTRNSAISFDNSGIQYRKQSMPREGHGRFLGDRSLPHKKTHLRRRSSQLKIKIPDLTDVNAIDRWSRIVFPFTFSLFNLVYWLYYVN
# Sequence of human GABAA α1β3γ2 (P18507 40-475): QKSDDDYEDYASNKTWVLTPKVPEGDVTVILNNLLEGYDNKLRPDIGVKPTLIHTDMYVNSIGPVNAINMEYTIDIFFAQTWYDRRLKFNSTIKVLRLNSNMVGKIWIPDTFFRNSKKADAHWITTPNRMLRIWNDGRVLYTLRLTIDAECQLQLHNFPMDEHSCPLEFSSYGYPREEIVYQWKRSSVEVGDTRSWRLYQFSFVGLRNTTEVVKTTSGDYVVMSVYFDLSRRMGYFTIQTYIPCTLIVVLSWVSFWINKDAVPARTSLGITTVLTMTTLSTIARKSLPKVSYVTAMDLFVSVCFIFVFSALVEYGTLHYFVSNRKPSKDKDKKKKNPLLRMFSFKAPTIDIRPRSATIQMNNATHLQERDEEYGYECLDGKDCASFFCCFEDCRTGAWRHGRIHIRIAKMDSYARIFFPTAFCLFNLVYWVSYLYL
# Sequence of human GABAA α3β3γ2 (P34903 29-492): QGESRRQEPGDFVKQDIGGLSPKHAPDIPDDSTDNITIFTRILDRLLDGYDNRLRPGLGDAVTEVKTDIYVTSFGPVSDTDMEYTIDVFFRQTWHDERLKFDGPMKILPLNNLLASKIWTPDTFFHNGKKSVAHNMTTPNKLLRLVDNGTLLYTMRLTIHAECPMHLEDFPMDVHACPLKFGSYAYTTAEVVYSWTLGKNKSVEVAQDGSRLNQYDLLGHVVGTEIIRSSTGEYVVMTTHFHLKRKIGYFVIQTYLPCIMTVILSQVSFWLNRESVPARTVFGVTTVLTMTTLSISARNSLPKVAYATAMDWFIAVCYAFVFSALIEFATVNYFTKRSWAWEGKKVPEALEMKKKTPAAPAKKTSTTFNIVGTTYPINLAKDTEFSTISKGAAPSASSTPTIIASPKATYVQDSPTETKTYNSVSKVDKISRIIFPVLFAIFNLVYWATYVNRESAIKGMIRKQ
# Sequence of human GABAA α3β3γ2 (P28472 26-473): as the sequence (P28472 26-473) above
# Sequence of human GABAA α3β3γ2 (P18507 40-475): as the sequence (P18507 40-475) above
# Sequence of human GABAA α2β3γ2 (P47869 29-451): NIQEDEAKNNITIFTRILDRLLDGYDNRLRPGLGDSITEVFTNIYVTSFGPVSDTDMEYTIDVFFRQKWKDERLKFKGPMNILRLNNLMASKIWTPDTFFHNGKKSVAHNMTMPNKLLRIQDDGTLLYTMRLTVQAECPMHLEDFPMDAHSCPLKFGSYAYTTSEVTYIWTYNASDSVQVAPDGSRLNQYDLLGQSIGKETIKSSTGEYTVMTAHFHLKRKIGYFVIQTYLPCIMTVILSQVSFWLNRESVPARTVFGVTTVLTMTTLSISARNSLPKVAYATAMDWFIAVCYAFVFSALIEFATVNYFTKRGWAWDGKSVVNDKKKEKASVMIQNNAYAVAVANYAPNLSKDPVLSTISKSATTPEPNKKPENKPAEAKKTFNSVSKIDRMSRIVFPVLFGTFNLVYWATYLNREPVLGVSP
# Sequence of human GABAA α2β3γ2 (P28472 26-473): as the sequence (P28472 26-473) above
# Sequence of human GABAA α2β3γ2 (P18507 40-475): as the sequence (P18507 40-475) above
Compound,IC50 [1],reversal of neuropathic pain induced by spinal nerve ligation [2],"50% paw withdrawal threshold [2, 8]",GABAA α2β3γ2 normalized percent current ([3]; 10 μM test compound),GABAA α3β3γ2 normalized percent current ([4]; 10 μM test compound),GABAA α1β3γ2 normalized percent current ([5]; 10 μM test compound),reversal of acute pain induced by capsaicin injection [6],other results
"N#CC(C(=S)Nc1ccc([N+](=O)[O-])cc1)=C(O)C1CC1 [Example 4, 2-Cyano-3-cyclopropyl-3-hydroxy-N-(4-nitro-phenyl)-thioacrylamide]",8.7 µM,can reverse neuropathic pain,~50 g,,,,,"50% paw withdrawal threshold [2, 7]: 30 g"
"N#CC(C(=S)Nc1ccc(C#N)cc1)=C(O)C1CC1 [Example 7, 2-Cyano-N-(4-cyano-phenyl)-3-cyclopropyl-3-hydroxy-thioacrylamide]",9.6 µM,,,,,,,
"N#CC(C(=S)Nc1ccc(S(=O)(=O)C(F)(F)F)cc1)=C(O)C1CC1 [Example 9, 2-Cyano-3-cycopropyl-3-hydroxy-N-(4-trifluoromethanesulfonyl-phenyl)-thioacrylamide]",5 µM,,,259%,328%,286%,,
"Cc1cc(NC(=S)C(C#N)=C(O)C2CC2)ccc1F [Example 2, 2-Cyano-3-cyclopropyl-N-(4-fluoro-3-methyl-phenyl)-3-hydroxy-thioacrylamide]",8.3 µM,can reverse neuropathic pain,,,,,can reverse acute pain,"GABAA α2β3γ2 normalized percent current ([3]; 50 μM test compound): 470%; GABAA α3β3γ2 normalized percent current ([4]; 50 μM test compound): 835%; 50% paw withdrawal threshold ([2]; Experiment 1, 10 mg/kg oral gavage 5 days DPO7-DPO12, at DPO21): 40 g; 50% paw withdrawal threshold [2, 9]: 40 g; GABAA α1β3γ2 normalized percent current ([5]; 50 μM test compound): 734%; 50% paw withdrawal threshold [6, 10]: ~40 g; 50% paw withdrawal threshold [6, 11]: ~33 g"
"Cc1cc(NC(=S)C(C#N)=C(O)C2CC2)ccc1C(F)(F)F [Example 1, 2-Cyano-3-cyclopropyl-3-hydroxy-N-(3-methyl-4-trifluormethyl-phenyl)-thioacrylamide]",5.3 µM,can reverse neuropathic pain,,614%,697%,792%,can reverse acute pain,"50% paw withdrawal threshold [2, 9]: 30 g; 50% paw withdrawal threshold [6, 12]: 30 g; 50% paw withdrawal threshold [6, 13]: ~50 g"
"N#CC(C(=S)Nc1ccc(SC(F)(F)F)cc1)=C(O)C1CC1 [Example 5, 2-Cyano-3-cyclopropyl-3-hydroxy-N-(4-trifluoromethylsulfanyl-phenyl)-thioacrylamide]",7.7 µM,,,453%,315%,707%,,
"Cc1cc(NC(=S)C(C#N)=C(O)C2CC2)ccc1[N+](=O)[O-] [Example 3, 2-Cyano-3-cyclopropyl-3-hydroxy-N-(3-methyl-4-nitro-phenyl)-thioacrylamide]",6 µM,can reverse neuropathic pain,about 35 g,,,,can reverse acute pain,"GABAA α2β3γ2 normalized percent current ([3]; 50 μM test compound): 380%; GABAA α3β3γ2 normalized percent current ([4]; 50 μM test compound): 469%; 50% paw withdrawal threshold [2, 7]: 23 to 25 g; GABAA α1β3γ2 normalized percent current ([5]; 50 μM test compound): 424%; 50% paw withdrawal threshold [6, 12]: 40 g; 50% paw withdrawal threshold [6, 13]: ~50 g"
"N#CC(C(=S)Nc1ccc([S+]([O-])C(F)(F)F)cc1)=C(O)C1CC1 (stereo not shown) [Example 8, 2-Cyano-3-cyclopropyl-3-hydroxy-N-(4-trifluoromethanesulfinyl-phenyl)-thioacrylamide]",10.3 µM,,,,,,,
"Cc1cc(NC(=S)C(C#N)=C(O)C2CC2)ccc1C#N [Example 6, 2-Cyano-N-(4-cyano-3-methyl-phenyl)-3-cyclopropyl-3-hydroxy-thioacrylamide]",7.9 µM,can reverse neuropathic pain,~40 g,286%,357%,338%,can reverse acute pain,"50% paw withdrawal threshold [6, 10]: 35 g; 50% paw withdrawal threshold [6, 11]: 25 g"
